Results published in publication PMC8080350, “Rhodanine-3-acetamide derivatives as aldose and aldehyde reductase inhibitors to treat diabetic complications: synthesis, biological evaluation, molecular docking and simulation studies” (BMC Chemistry, 2021).
Like-named read-outs stand apart in the source and are kept apart here.

Tests used:
aldose reductase (ALR2) = target: T1, aldose reductase (ALR2) (Bos taurus, UniProt P16116); assay: ALR2 enzyme inhibition assay; assay type: biochemical, calf; details: for IC50: substrate D,L-glyceraldehyde, cofactor NADPH, pH 6.2, 340 nm, read-out: ALR2 IC50 ± SEM
T1 construct: The enzyme aldose reductase was extracted from calf lenses; from tissue; host or cells: calf lenses
Description: (§1) The newly synthesized of 5-benzylidene rhodanine-3-acetamide derivatives 3(a–g) were evaluated for in vitro enzyme inhibitory potential on aldehyde and aldose reductase enzymes. […] IC50 ± SEM (µM) values were calculated for the compounds showing more than 50% inhibition against both the isozymes, (Table 1).
(§2) All required chemicals used in the enzyme extraction procedure were of high analytical grade. Enzyme inhibitory assay was performed on ELISA microplate reader at 340 nm and 96 well-plates were used for the sample analysis. Micropipettes from Gilson were used for sample loading. Sodium-D-glucoronate and D,L-glyceraldehyde were used as substrates along with a cofactor i.e. NADPH (nicotinamide adenine dinucleotide phosphate) from Sigma Aldrich.
The enzyme aldose reductase was extracted from calf lenses. 200–300 g lenses were added to triple volume of cold water and homogenized for 20 min. The homogenate was then centrifuged at 10,000 rpm for 15 min at 4 °C. The insoluble precipitates were discarded and the supernatant was saturated with 70% ammonium sulfate and after centrifugation at 10,000 rpm at 4 °C for 15 min the supernatant was dialyzed overnight and the protein contents was calculated via Bradford method and the crude aldose reductase was stored at −80 °C [31].
The assay was performed on ELISA (Bio-Tek ELx800™ Instrument, Inc. USA) based spectrophotometric analysis in 96 well plate. The assay mixture was composed of 20 µL buffer (100 mM potassium dihydrogen phosphate pH 6.2), 10 µL test compound (1 mM), 70 µL enzyme and incubated for 10 min at 37 °C followed by addition of 40 µL substrate (D,L-glyceraldehyde 50 mM for ALR2) and 50 µL NADPH (0.5 mM) (nicotinamide adenine dinucleotide phosphate) as a co-factor. After 30 min incubation optical density was measured at 340 nm.
(§3) Results were analyzed by graph pad prism® software to calculate IC50 and percentage inhibition was calculated by the following formula.
(§4) % Inhibition = […].

[1] = target: aldehyde reductase (ALR1) (Ovis aries, UniProt A0ACI6RLT8); assay: ALR1 enzyme inhibition assay; assay type: biochemical, lamb; details: for selectivity towards ALR1 over ALR2: from IC50 values on ALR1 and ALR2
Description: as §1, §2
Aldehyde reductase enzyme was extracted from lamb kidney and the cortical part was separated carefully. The cortex was homogenized in triple volume of extraction buffer (2.0 mM EDTA, 0.25 M sucrose, 10 mM sodium phosphate and 2.5 mM β-mercaptoethanol at pH 7.2). The homogenate was centrifuged at 12,000 rpm at 4 °C for 30 min, the insoluble precipitates were discarded and the supernatant was saturated with 40%, 50% and 75% ammonium sulfate respectively and after each addition the solution was centrifuged at 12,000 rpm at 4 °C for 30 min, each time the pallet was discarded and for the last saturation the supernatant was taken and dialyzed overnight in extraction buffer. Next day the protein content was calculated via Bradford method and the crude aldehyde reductase was stored at − 80 °C [30].
The assay was performed on ELISA (Bio-Tek ELx800TM Instrument, Inc. USA) based spectrophotometric analysis in 96 well plate. The assay mixture was composed of 20 µL buffer (100 mM potassium dihydrogen phosphate pH 6.2), 10 µL test compound (1 mM), 70 µL enzyme and incubated for 10 min at 37 °C followed by addition of 40 µL Glucoronate 50 mM (as a substrate) and 50 µL (0.5 mM) NADPH (nicotinamide adenine dinucleotide phosphate) as a co-factor. After 30 min incubation optical density was measured at 340 nm.
as §3, §4

[2] = substrate sodium D-glucuronate, cofactor NADPH, pH 6.2, 340 nm, read-out: ALR1 IC50 ± SEM

aldehyde reductase (ALR1), sequence (A0ACI6RLT8 entry or part of it): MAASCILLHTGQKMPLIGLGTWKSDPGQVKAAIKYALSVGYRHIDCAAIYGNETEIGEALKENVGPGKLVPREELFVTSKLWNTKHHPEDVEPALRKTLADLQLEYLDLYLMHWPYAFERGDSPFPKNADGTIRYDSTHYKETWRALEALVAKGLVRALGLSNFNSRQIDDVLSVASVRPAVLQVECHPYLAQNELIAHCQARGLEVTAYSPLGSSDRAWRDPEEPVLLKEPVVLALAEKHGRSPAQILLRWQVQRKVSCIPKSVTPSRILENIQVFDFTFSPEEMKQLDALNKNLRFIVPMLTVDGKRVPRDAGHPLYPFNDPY

Row | Compound | IC50 (aldose reductase (ALR2)) [µM] | IC50 [1, 2] [µM] | melting point [°C] | selectivity towards ALR1 over ALR2 [1] | selectivity towards ALR2 over ALR1 (aldose reductase (ALR2); from IC50 values on ALR1 and ALR2) | IC50 [1] [µM]
1 | COc1cc(/C=C2\SC(=S)N(CC(=O)Nc3ccccc3)C2=O)ccc1O [Compound 3a, (Z)-5-(4-hydroxy-3-methoxybenzylidene)-3-(2-anilino-2-oxoethyl)-2-thioxothiazolidin-4-one] | 0.25 ± 0.04 | 5.38 ± 0.07 | – | – | – | –
2 | COc1cc(/C=C2\SC(=S)N(CC(=O)N3CCOCC3)C2=O)ccc1O [Compound 3b, (Z)-5-(4-hydroxy-3-methoxybenzylidene)-3-(2-morpholino-2-oxoethyl)-2-thioxothiazolidin-4-one] | 19.2 ± 0.08 | 6.07 ± 0.05 | 211 to 213 | – | – | –
3 | COc1cc(/C=C2\SC(=S)N(CC(=O)Nc3ccc(C(=O)O)c(O)c3)C2=O)ccc1O [Compound 3c, 2-Hydroxy-4-({[(Z)-5-(4-hydroxy-3-methoxybenzylidene)-4-oxo-2-thioxo-1,3-thiazolidin-3-yl]acetyl}amino)benzoic acid] | 6.38 ± 0.01 | 2.38 ± 0.02 | – | – | – | –
4 | COc1cc(/C=C2\SC(=S)N(CC(=O)Nc3ccc(C(=O)O)cc3)C2=O)ccc1O [Compound 3d, 4-({[(Z)-5-(4-hydroxy-3-methoxybenzylidene)-4-oxo-2-thioxo-1,3-thiazolidin-3-yl]acetyl}amino)benzoic acid] | 7.36 ± 0.02 | 3.76 ± 0.09 | 217 to 219 | more selective and potent inhibitors of ALR1 | – | –
5 | COc1ccc(/C=C2\SC(=S)N(CC(=O)Nc3ccccc3)C2=O)cc1 [Compound 3e, (Z) 5-(4-methoxybenzylidene)-3-(2-anilino-2-oxoethyl)-2-thioxothiazolidin-4-one] | 12.71 ± 0.09 | 2.87 ± 0.01 | 190 to 192 | more selective and potent inhibitors of ALR1 | – | –
6 | COc1ccc(/C=C2\SC(=S)N(CC(=O)N3CCOCC3)C2=O)cc1 [Compound 3f, (Z) 5-(4-methoxybenzylidene)-3-(2-morpholino-2-oxoethyl)-2-thioxothiazolidin-4-one] | 0.12 ± 0.01 | 2.18 ± 0.03 | 203 to 205 | – | selective towards ALR2 | –
7 | CC1=C(CC(=O)O)c2cc(F)ccc2/C1=C\c1ccc([S+](C)[O-])cc1 (centres unmarked) [Sulindac, reference compound] | 0.29 ± 0.08 | – | – | – | – | –
8 | CCCC(CCC)C(=O)O [Valproic acid, reference compound] | – | – | – | – | – | 57.4 ± 0.89
9 | (Z) 5-(4-hydroxy-3-methoxybenzylidene)-3-(2-pyrrolidino-2-oxoethyl)-2-thioxothiazolidin-4-one [Compound 3g] | 2.42 ± 0.03 | 2.22 ± 0.04 | – | – | – | –
